From patent US5310745A, “Antiviral compounds” (priority 1992, dated 1994)

Tests used:
[1] = system: visna virus; test: Plaque reduction assay, inhibition of visna virus in vitro; assay type: cell-based; parameters: key to Antiviral Activity: A: active compound; I: inactive compound; conditions: Table 1
Source text: Visna virus, a lentivirus genetically very similar to the AIDS virus, is pathogenic for sheep and goats. See Sonigo et al., Cell 42, 369-382 (1985); Haase, Nature 322, 130-136 (1986). Inhibition of visna virus replication in vitro as a useful model for human immunodeficiency virus (HIV) and its inhibition by test compounds has been described by Franket al., Antimicrobial Agents and Chemotherapy 31 (9), 1369-1374 (1987). The N-butyl derivative of 1,5-dideoxy-1,5-imino-D-glucitol, also referred to as n-butyl-deoxynojirimycin (N-Bu-DNJ), was used as a control standard for comparison with various novel compounds of this invention.
Various compounds as prepared above were tested for inhibition of visna virus in vitro in a plaque reduction assay as follows:
(§1) Sheep choroid plexus (SCP) cells were obtained from American Type Culture Collection (ATCC) catalogue number CRL 1700 and were routinely passaged in vitro in Dulbecco's Modified Eagles (DME) medium supplemented with 20% fetal bovine serum (FBS). SCP cells were passaged once per week at a 1:2 or 1:3 split ratio. Visna was titrated by plaque assay in six-well plates. Virus pools were stored at -70° C.
(§2) SCP cells were cultured in 6-well plates to confluence. Wells were washed two times with serum free Minimal Essential Medium (MEM) to remove FBS. 0.2 ml of virus was added per well in MEM supplemented with 4 mM glutamine and gentamycin. After 1 hour adsorption, the virus was aspirated from each well. The appropriate concentration of each compound in 5 ml of Medium 199 (M-199) supplemented With 2% lamb serum, 4 mM glutamine, 0.5% agarose and gentamycin was added to each well. Cultures were incubated at 37° C. in a humidified 5% CO2 incubator for 3-4 weeks. To terminate the test: cultures were fixed in 10% formalin, the agar removed, the monolayers stained with 1% crystal violet and plaques counted. Each compound concentration was run in triplicate. […] 0 is no toxicity observed while 4 is total lysing of the cell monolayer.

[2] = system: Sheep choroid plexus (SCP) cells; test: Toxicity of compounds in control wells without virus, graded morphologically; assay type: cell-based; conditions: 0.1 mM; 0 to 4 scale; Table 1
Method: as §1, §2

[3] = Pharmacokinetic and metabolism study, Rhesus monkey; assay type: in vivo
Method: (§3) The parent tetrabutyrate compound consequently serves as an antivirally effective and useful pro-drug of the latter compound to which it is metabolized in the gut. […] The parent pro-drug was not detected. […] The oral bioactivity of the metabolite compound, measured as [^14 C]-metabolite compound, was determined to be between 28% and 50% in the Rhesus monkey, depending on the vehicle used (e.g., 0.5% methyl cellulose and 0.1% polysorbate in water). […] The blood levels of the metabolite compound, measured as part of a long term SIV infected monkey efficacy study, following oral dosing (high dose 750 mg/kg, low dose 250 mg/kg, administered every eight hours) with the pro-drug, yielded mean trough (cmin) plasma blood levels of the metabolite compound at eight hours post dosing of approximately 10 μg/mL and 6.8 μg/mL for the high and low doses, respectively.

[4] = Pharmacokinetic and metabolism study, rat; assay type: in vivo
Method: as §3

[5] = system: sucrase; test: Sucrase inhibition locally in the gut; assay type: in vivo, monkey; conditions: normal, uninfected monkeys
[6] = Diarrheagenic effect; assay type: in vivo, monkey; conditions: normal, uninfected monkeys
[7] = system: Sheep choroid plexus (SCP) cells; test: Toxicity of compounds in control wells without virus, graded morphologically; assay type: cell-based; parameters: key: 0: no toxicity; 4: total cell lysates; conditions: 0 to 4 scale, Table 1
Method: as §1, §2

[8] = oral [14C] pro-drug, Rhesus monkey

SMILES: CCCCN1C[C@H](OC(=O)CCC)[C@@H](OC(=O)CCC)[C@H](OC(=O)CCC)[C@H]1COC(=O)CCC [Example 16, 1,5-(Butylimino)-1,5-dideoxy-D-glucitol, tetrabutyrate]
- Antiviral Activity ([1]; 0.001 mM): A
- Antiviral Activity ([1]; 0.01 mM): A
- Antiviral Activity ([1]; 0.1 mM): A
- Antiviral Activity ([1]; 1.0 mM): Toxic
- Toxicity [2]: 1
- metabolic transformation in vivo ([3]; Rhesus monkey): controlled, sustained levels of a metabolite
- metabolic profiles of either radiolabeled compound (pro-drug, metabolite) ([3]; monkey, oral, plasma and urine): the same in plasma and urine
- parent pro-drug in plasma [3, 8]: not detected
- radiolabeled compound in plasma after oral pro-drug [3, 8]: yielded only [^14 C]SC-metabolite compound in the plasma
- metabolic transformation in vivo [4]: controlled, sustained levels of a metabolite
- parent pro-drug in plasma ([4]; oral [14C] pro-drug): not detected
- radiolabeled compound in plasma after oral pro-drug ([4]; oral [14C] pro-drug): yielded only [^14 C]SC-metabolite compound in the plasma
- parent pro-drug in portal plasma ([4]; oral, portal plasma): no parent pro-drug detected
- inhibition of sucrase locally in the gut [5]: does not significantly inhibit sucrase locally in the gut
- diarrheagenic results [6]: negative diarrheagenic results
- Toxicity ([7]; 0.001 mM): 0
- Toxicity ([7]; 0.01 mM): 0
- Toxicity ([7]; 1.0 mM): 4
